Columns and labels:
[1] = Detection of oral plasma exposure in rats; assay type: in vivo; conditions: rat, SD rats, p.o. 10 mg/kg
Method: Detection of oral plasma exposure in rats: The compounds of the present invention have good oral in-vivo exposure in rats
After a single dose of 10 mg/kg oral administration of the compound to be tested in SD rats, blood samples were collected at different time points.
Standard curve and quality control sample preparation processing: The mixed reserve solution of the compound to be tested was taken and diluted with 50% methanol water into standard working solutions containing respective compounds with concentrations of 20, 40, 100, 200, 400, 1000, 2000, 4000, 10000, and 20000 ng/mL, as well as 60, 600, and 16000 ng/mL quality control working solutions. […] of a blank matrix was taken. […] of the standard curve working solutions and the quality control working solutions were added to prepare standard curves containing respective compounds with concentrations of 1.00, 2.00, 5.00, 10.00, 20.00, 50.00, 100.00, 200.00, 500.00, and 1000.00 ng/mL, as well as quality control samples with concentrations of 3.00, 30.00, and 800.00 ng/mL, respectively. 400 μL of acetonitrile (containing internal standard Verpmil of 2 ng/mL) was added. After vortex oscillation at 700 rcf for 10 minutes, centrifugation was conducted at 3300 rcf at 4° C. for 10 minutes. The supernatant was taken for LC-MS/MS analysis.
Unknown sample preparation processing: 50 μL of the sample to be tested was taken. 400 μL of acetonitrile (containing internal standard Verpmil of 2 ng/mL) was added. After vortex oscillation at 700 rcf for 10 minutes, centrifugation was conducted at 3300 rcf and 4° C. for 10 minutes. The supernatant was taken for LC-MS/MS analysis.

[2] = tested on: BaF3-EGFR^L858R/T790M/C797S cells; experiment: BaF3 cell proliferation inhibition experiment (CCK-8); assay type: cell-based; conditions: Ba/F3 EGFR-L858R, 72 hours
Excerpt: BaF3 cell proliferation inhibition experiment: The compounds of the present invention have excellent inhibitory activity against the proliferation of BaF3-EGFR^L858R/T790M/C797S cells
(§1) A. Cell line: BaF3 cells with stable overexpression of wild-type genes are named BaF3-EGFR^WT, and BaF3 cells with stable overexpression of EGFR^L858R/T790M/C797S EGFR^del19/T790M/C797S EGFR^L858R/C797S and EGFR^del19/C797S mutant genes are named BaF3-EGFR^L858R/T790M/C797S BaF3-EGFR^del19/T790M/C797S BaF3-EGFR^L858R/C797S and BaF3-EGFR^del19/C797S cells, respectively. Mediums:
(§2) a) The medium was preheated in a 37° C. water bath.
(§3) b) The cryopreservation tube was taken from the liquid nitrogen tank, quickly placed in a 37° C. water bath, and melted completely within 1 minute.
(§4) c) The cell suspension was transferred to a 15 mL centrifuge tube containing a 10 mL medium and centrifuged at 1000 rpm for 4 minutes.
(§5) d) The supernatant was discarded, the cells were resuspended in a 1 mL medium and transferred to a […] culture dish containing a 10 mL medium, 20% serum and 50 ng/mL EGF were administered to the first-generation medium, and culture was conducted in a 37° C. and 5% CO2 incubator.
(§6) b) The cells in the culture dish were blown evenly with a 5 mL pipette, and 500 μL of the cells were pipetted out to be inoculated into a new […] culture dish and cultured in a 37° C. and 5% CO2 incubator.
(§7) a) The compound to be tested (10 mM stock solution) was diluted with 100% DMSO to 1 mM, and diluted with a culture solution in a 24-well plate to prepare of a working solution of 2 μM concentration.
(§8) b) The 2 μM working solution was diluted with a triple dilution method to obtain working solutions with approximate concentrations of 2 μM, 600 nM, 200 nM, 60 nM, and 20 nM.
(§9) a) The cells at the logarithmic growth phase were centrifuged at 1000 rpm for 4 minutes, resuspended with a medium (containing 10% serum and 50 ng/mL EGF), and counted.
(§10) b) The cells were inoculated into a 96-well plate with a cell density of 4000 cells/well, and placed in a 37° C. and 5% CO2 incubator for culture for 12 hours.
(§11) a) The prepared compound was added to a 96-well plate, with 100 μL per well. The final concentrations were 1 μM, 300 nM, 100 nM, 30 nM, 10 nM, and 0 nM, and the final concentration of DMSO was 0.2%. A medium served as a blank control.
(§12) b) The cells were placed in 37° C. and 5% CO2 incubator for culture for 72 hours.
(§13) (5) Cell Viability Testing
(§14) a) The 96-well cell culture plate was taken out, and 20 μL of a CCK-8 reagent (Cell Counting Kit-8, Topscience, Catalog No. C0005) was added in the dark.
(§15) b) Mixing well was conducted on a horizontal shaking table at a room temperature at 100 rpm for 5 minutes.
(§16) c) The culture plate was placed in a 37° C. constant-temperature incubator for incubation.
d) Starting from the addition of the CCK-8, the absorbance at 450 nm was read using the TECAN microplate reader at 1 hour, 2 hours, and 3 hours, respectively.
(§17) The data was analyzed using GraphPad Prism 8.0 software to obtain a fitted curve of activity of the compounds. The IC50 of the compounds was fitted from nonlinear regression equation.

[3] = tested on: A431 cells; experiment: A431 cell proliferation inhibition (SRB); assay type: cell-based; conditions: Homo sapiens, A-431, wild-type EGFR, 72 hours
Method: A431 cell proliferation inhibition: The compounds of the present invention have good selectivity to wild-type EGFR
as §2, §3, §4, §5, §6, §7, §8, §9, §10, §11, §12, §13
a) The cell supernatant was discarded, rinsed once with 1×PBS, and fixed with 10% trichloroacetic acid for 1 hour. The trichloroacetic acid was discarded, excess trichloroacetic acid was washed off with tap water, and the 96-well plate was dried in a 60° C. oven.
b) 70 μL of an SRB stain was added to each well of the dry 96-well plate for staining at a room temperature for 30 minutes. Excess SRB stain was washed off with 1% glacial acetic acid, and the 96-well plate was dried in a 60° C. oven.
c) SRB was dissolved with 100 μL of 10 mM Tris-base solution. The absorbance was detected at 540 nm ultraviolet absorption using the microplate reader. The data was analyzed.
as §17

[4] = target: EGFR^L858R/T790M/C797S kinase (Homo sapiens (Human), UniProt P00533, C797S/L858R/T790M); experiment: EGFR^L858R/T790M/C797S kinase inhibitory activity experiment; assay type: biochemical; conditions: in vitro
Method: EGFRL^858R/T790M/C797S kinase inhibitory activity experiment: The compounds of the present invention have excellent in-vitro inhibitory activity against EGFR^L858R/T790M/C797S kinase
• Centrifuge (manufacturer: Eppendorf, model: 5430) • Microplate reader (manufacturer: Perkin Elmer, model: Caliper EZ ReaderII) • Echo 550 (manufacturer: Labcyte, model: Echo 550) • Experimental Method • Compound preparation: • A 10 mM storage solution was prepared.
(1) 1×Kinase buffer was prepared.
(2) Preparation of concentration gradient of compound: The tested compound has a test concentration starting from 1 μM, diluted 10 times, with 10 concentrations, and subjected to single-well or multi-well detection. The compound was diluted to a 100% DMSO solution with a final concentration of 100 times in a 384 source plate. […] of the compound at a final concentration of 100 times was transferred to the target plate 384-well-plate using the pipette Echo 550.
(3) A kinase solution with a final concentration of 2.5 times was prepared using 1× Kinase buffer.
(4) 10 μL of the kinase solution with the final concentration of 2.5 times was added to a compound well and a positive control well, respectively; 10 μL of 1×Kinase buffer was added to a negative control well.
(5) Centrifugation was conducted at 1000 rpm for 30 seconds, and the reaction plate was shaken and mixed well, and incubated at a room temperature for 10 minutes.
(6) A mixed solution of ATP with a final concentration of 5/3 times and Kinase substrate 22 was prepared using 1×Kinase buffer.
(7) A mixed solution of 15 μL of ATP with a final concentration of 5/3 times and a substrate was added for initial reaction.
(8) The 384-well-plate was centrifuged at 1000 rpm for 30 seconds, shaken and mixed well, and incubated at a room temperature for 60 minutes.
(9) 30 μL of a termination detection solution was added to stop the kinase reaction. Centrifugation was conducted at 1000 rpm for 30 seconds. Shaking and mixing well were conducted.
(10) The conversion rate was read using Caliper EZ Reader.
where Conversion %_sample is the conversion rate reading of the sample; Conversion %_min: the average value of negative control wells, representing the conversion rate reading of wells without enzyme activity; Conversion %_max: the average value of positive control wells, representing the conversion rate reading of wells without compound inhibition; % Inhibition represents the inhibition rate.
Fitting of Dose-Response Curve
Using the log value of concentration as the X-axis and the percentage inhibition rate as the Y-axis, the dose-response curve was fitted using the log(inhibitor) vs. response —Variable slope of the analysis software GraphPad Prism 5 to obtain the IC50 value of each compound on enzyme activity.

[5] = tested on: BaF3-EGFR^del19/T790M/C797S cells; experiment: BaF3 cell proliferation inhibition experiment (CCK-8); assay type: cell-based; conditions: Ba/F3 EGFR-Del19/T790M/C797S; cell proliferation, 72 hours; read-out: BaF3-EGFR^del19 /T790M/C797S (IC50 nM)
Method: as §1, §2, §3, §4, §5, §6, §7, §8, §9, §10, §11, §12, §13, §14, §15, §16, §17

[6] = tested on: BaF3-EGFR^WT cells; experiment: as above; assay type: cell-based; conditions: Mus musculus, BaF3; cell proliferation, 72 hours; read-out: BaF3-EGFR^WT (IC50 nM)
Method: as §1, §2, §3, §4, §5, §6, §7, §8, §9, §10, §11, §12, §13, §14, §15, §16, §17

Chain of EGFR^L858R/T790M/C797S kinase (P00533 25-1210 T790M/C797S/L858R): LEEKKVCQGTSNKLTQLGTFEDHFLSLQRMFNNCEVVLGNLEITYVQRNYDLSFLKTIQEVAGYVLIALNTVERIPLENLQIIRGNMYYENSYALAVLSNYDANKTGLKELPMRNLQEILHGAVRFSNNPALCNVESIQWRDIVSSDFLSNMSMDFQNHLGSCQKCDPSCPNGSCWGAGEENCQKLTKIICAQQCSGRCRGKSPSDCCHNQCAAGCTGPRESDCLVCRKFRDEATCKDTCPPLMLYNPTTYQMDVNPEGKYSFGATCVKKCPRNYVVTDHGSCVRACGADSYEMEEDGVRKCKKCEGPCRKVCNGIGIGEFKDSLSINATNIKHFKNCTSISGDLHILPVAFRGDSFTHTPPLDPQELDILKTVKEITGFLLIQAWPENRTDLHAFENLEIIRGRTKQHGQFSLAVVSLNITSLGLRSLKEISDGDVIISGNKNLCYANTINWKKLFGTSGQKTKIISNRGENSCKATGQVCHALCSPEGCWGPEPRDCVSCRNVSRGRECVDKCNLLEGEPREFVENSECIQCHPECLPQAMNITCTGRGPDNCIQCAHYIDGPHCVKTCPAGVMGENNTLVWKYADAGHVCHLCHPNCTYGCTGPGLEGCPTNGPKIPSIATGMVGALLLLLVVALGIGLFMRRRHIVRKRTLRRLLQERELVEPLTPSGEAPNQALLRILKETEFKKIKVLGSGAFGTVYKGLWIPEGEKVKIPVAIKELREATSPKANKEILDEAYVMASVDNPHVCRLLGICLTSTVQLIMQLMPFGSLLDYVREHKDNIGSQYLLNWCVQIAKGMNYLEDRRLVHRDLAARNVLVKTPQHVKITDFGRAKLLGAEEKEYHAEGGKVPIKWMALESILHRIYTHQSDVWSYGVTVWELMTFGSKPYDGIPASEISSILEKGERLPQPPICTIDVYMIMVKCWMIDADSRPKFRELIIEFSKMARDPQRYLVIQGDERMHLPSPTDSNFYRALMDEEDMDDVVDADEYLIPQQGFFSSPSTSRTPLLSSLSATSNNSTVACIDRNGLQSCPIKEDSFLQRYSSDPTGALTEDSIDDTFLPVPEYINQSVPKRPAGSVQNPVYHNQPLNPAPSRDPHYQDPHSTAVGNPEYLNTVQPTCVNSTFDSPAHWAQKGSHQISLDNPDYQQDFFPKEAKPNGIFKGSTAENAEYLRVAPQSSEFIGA

Row | SMILES | Cmax [1] [ng/mL] | IC50 [2] [nM] | IC50 [3] [nM] | IC50 [4] [nM] | IC50 [5] [nM] | IC50 [6] [nM]
1 | COc1cc(N2CCC3(CC2)CC(N(C)C)C3)c(C)cc1Nc1ncc(Cl)c(Nc2ccc(C)c(C)c2P(C)(C)=O)n1 [Compound 23, (6-((5-chloro-2-((4-(2-(dimethylamino)-7-azaspiro[3.5]nonan-7-yl)-2-methoxy-5-methylphenyl)amino)pyrimidin-4-yl)amino)-2,3-dimethylphenyl)dimethylphosphine oxide] | – | 39 | > 500 | 0.78 | – | –
2 | COc1cc(N2CC3(CCN(C)CC3)C2)c(C)cc1Nc1ncc(Cl)c(Nc2ccc(C)c(C)c2P(C)(C)=O)n1 [Compound 32] | – | 55.4 | 962 | 0.92 | – | –
3 | CCc1cc(Nc2ncc(Cl)c(Nc3cc(C)c(C)cc3P(C)(C)=O)n2)c(OC)cc1N1CCC(N2C[C@@H](C)N(C)[C@@H](C)C2)CC1 [Compound 50, (2-((5-chloro-2-((5-ethyl-2-methoxy-4-(4-((3S,5R)-3,4,5-trimethylpiperazin-1-yl)piperidin-1-yl)phenyl)amino)pyrimidin-4-yl)amino)-4,5-dimethylphenyl)dimethylphosphine oxide] | – | – | – | 0.0707 | 186 | 942
4 | CCc1cc(Nc2ncc(Cl)c(Nc3ccc(C)c(C)c3P(C)(C)=O)n2)c(OC)cc1N1CCC(N2C[C@H]3CN(C)C[C@H]3C2)CC1 [Compound 52, (6-((5-Chloro-2-((5-ethyl-2-methoxy-4-(4-((3aR,6aS)-5-methyloctahydropyrrol[3,4-C]pyrrol-2(1H)-yl)piperidin-1-yl)phenyl)amino)pyrimidin-4-yl)amino)-2,3-dimethylphenyl)dimethylphosphine oxide] | – | 236 | 606 | 0.0369 | 92.8 | 353
5 | CCc1cc(Nc2ncc(Cl)c(Nc3ccc(C)c(C)c3P(C)(C)=O)n2)c(OC)cc1N1CCC2(CCN(C)CC2)CC1 [Compound 55, (6-((5-Chloro-2-((5-ethyl-2-methoxy-4-(9-methyl-3,9-diazaspiro[5.5]undecan-3-yl)phenyl)amino)pyrimidin-4-yl)amino)-2,3-dimethylphenyl)dimethylphosphine oxide] | – | 48.6 | 700 | 0.297 | – | –

More lines, in order of falling IC50 [4], values ahead:

Row | Cmax [1] [ng/mL] | IC50 [2] [nM] | IC50 [3] [nM] | IC50 [4] [nM] | IC50 [5] [nM] | IC50 [6] [nM] | SMILES
6 | 1190 | 44.4 | > 500 | 5.3 | – | – | COc1cc(N2CCC(N3CCN(C)CC3)CC2)c(C)cc1Nc1ncc(Cl)c(Nc2cc(C)c(C)cc2P(C)(C)=O)n1 [Compound 12, (2-((5-Chloro-2-((2-methoxy-5-methyl-4-(4-(4-methylpiperazin-1-yl)piperidin-1-yl)phenyl)amino)pyrimidin-4-yl)amino)-4,5-dimethylphenyl)dimethylphosphine oxide]
7 | – | 33.3 | > 500 | 0.65 | – | – | COc1cc(N2CCC3(CC2)CC(N(C)C)C3)c(Cl)cc1Nc1ncc(Cl)c(Nc2ccc(C)c(C)c2P(C)(C)=O)n1 [Compound 21, (6-((5-chloro-2-((5-chloro-4-(2-(dimethylamino)-7-azaspiro[3.5]nonan-7-yl)-2-methoxyphenyl)amino)pyrimidin-4-yl)amino)-2,3-dimethylphenyl)dimethylphosphine oxide]
8 | – | – | – | 0.0629 | 176 | 634 | CCc1cc(Nc2ncc(Cl)c(Nc3ccc(C)c(C)c3P(C)(C)=O)n2)c(OC)cc1N1CCC2(CC1)CC(N1CCCC1)C2 [Compound 48, (6-((5-chloro-2-((5-ethyl-2-methoxy-4-(2-(pyrrolidin-1-yl)-7-azaspiro[3.5]nonan-7-yl)phenyl)amino)pyrimidin-4-yl)amino)-2,3-dimethylphenyl)dimethylphosphine oxide]

Reference: patent US20250101052A1, “COMPOUND FOR EGFR KINASE INHIBITOR, COMPOSITION, AND USE THEREOF” (INNOVATION INSTITUTE FOR ARTIFICIAL INTELLIGENCE IN …, priority 2021, published 2025)
